molecular target: Polθ theta (1-899) (hPolQ) (Homo sapiens (Human), UniProt O75417); assay: Biological Assay 1: Polθ ATPase activity, NADH oxidation-coupled enzymatic assay (10 nM enzyme, 30 min); assay type: biochemical; conditions: Polθ (1-899) 10 nM, 100 μM ATP, 300 nM dT50 ssDNA; Examples 1 to 268; read-out: ATPase NADH coupling:Standard Screening:hPolQ IC50
Outline: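 ATP turnover was coupled to NADH oxidation and followed at 340 nm every minute for 30 min. Enzyme (residues 1-899, 10 nM) sat with compound for 15 min at room temperature before an equal-volume addition of 100 μM ATP plus 300 nM dT50 ssDNA. Progress-curve slopes from 10-point dilutions were fitted by a four-parameter model.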

Polθ theta (1-899) (hPolQ), sequence (O75417 1-899): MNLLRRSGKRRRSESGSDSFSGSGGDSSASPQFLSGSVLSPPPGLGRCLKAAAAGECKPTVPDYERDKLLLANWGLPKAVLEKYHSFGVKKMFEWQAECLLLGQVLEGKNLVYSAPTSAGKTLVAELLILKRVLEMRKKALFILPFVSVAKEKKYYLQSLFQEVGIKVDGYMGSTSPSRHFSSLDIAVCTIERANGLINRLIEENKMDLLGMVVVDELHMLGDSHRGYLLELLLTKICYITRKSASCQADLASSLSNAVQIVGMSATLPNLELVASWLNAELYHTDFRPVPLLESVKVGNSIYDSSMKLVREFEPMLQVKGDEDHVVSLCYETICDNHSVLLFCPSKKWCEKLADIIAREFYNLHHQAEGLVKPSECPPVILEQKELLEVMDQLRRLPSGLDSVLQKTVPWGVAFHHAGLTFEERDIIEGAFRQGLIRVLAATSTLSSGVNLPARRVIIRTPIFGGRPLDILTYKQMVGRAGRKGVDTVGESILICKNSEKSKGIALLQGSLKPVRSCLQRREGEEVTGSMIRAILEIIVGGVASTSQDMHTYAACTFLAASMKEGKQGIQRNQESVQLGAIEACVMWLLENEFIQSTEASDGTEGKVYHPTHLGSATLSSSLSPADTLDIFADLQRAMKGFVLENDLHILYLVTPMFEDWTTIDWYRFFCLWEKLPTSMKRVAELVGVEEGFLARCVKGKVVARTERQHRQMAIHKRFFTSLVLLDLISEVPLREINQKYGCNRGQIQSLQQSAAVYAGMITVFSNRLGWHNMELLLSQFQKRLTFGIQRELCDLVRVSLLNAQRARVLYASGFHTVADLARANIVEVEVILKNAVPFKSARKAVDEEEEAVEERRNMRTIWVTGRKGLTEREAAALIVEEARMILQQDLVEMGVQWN

SMILES	IC50
COc1cnc(Cl)c(F)c1-c1cc(C)ncc1C(=O)Nc1nnc(OC[C@@H]2COCCO2)s1 [Example 239, N-(5-(((S)-1,4-dioxan-2-yl)methoxy)-1,3,4-thiadiazol-2-yl)-2′-chloro-3′-fluoro-5′-methoxy-6-methyl-(4,4′-bipyridine)-3-carboxamide]	≤ 200 nM
Cc1cc(-c2c(F)cccc2OC(F)F)c(C(=O)Nc2nnc(OCc3ccc([C@H](C)O)cn3)s2)cn1 [Example 56, 4-(2-(difluoromethoxy)-6-fluorophenyl)-N-(5-((5-((S)-1-hydroxyethyl)pyridin-2-yl)methoxy)-1,3,4-thiadiazol-2-yl)-6-methylnicotinamide]	≤ 200 nM
CN=[S@](C)(=O)c1ccc(COc2nnc(NC(=O)c3cnc(C)cc3-c3c(F)cccc3OC)s2)cc1 [Example 154, N-(5-((4-((R)—N,S-dimethylsulfonimidoyl)benzyl)oxy)-1,3,4-thiadiazol-2-yl)-4-(2-fluoro-6-methoxyphenyl)-6-methylnicotinamide]	≤ 200 nM
COc1cnc(Cl)cc1-c1cc(C)ncc1C(=O)Nc1nnc(OCC23COC(C2)C3)s1 [Example 229, N-(5-((2-oxabicyclo(2.1.1)hexan-4-yl)methoxy)-1,3,4-thiadiazol-2-yl)-2′-chloro-5′-methoxy-6-methyl-(4,4′-bipyridine)-3-carboxamide]	≤ 200 nM
COc1ccc(COc2nnc(NC(=O)c3cnc(C)cc3-c3c(F)cccc3OC)s2)nc1OC [Example 43, N-(5-((5,6-dimethoxypyridin-2-yl)methoxy)-1,3,4-thiadiazol-2-yl)-4-(2-fluoro-6-methoxyphenyl)-6-methylnicotinamide]	≤ 200 nM
COc1ccccc1-c1cc(C)ncc1C(=O)Nc1nnc(OCc2ccc(CO)cn2)s1 [compound 5, N-(5-((5-(hydroxymethyl)pyridin-2-yl)methoxy)-1,3,4-thiadiazol-2-yl)-4-(2-methoxyphenyl)-6-methylnicotinamide]	≤ 200 nM
COc1cccc(F)c1-c1cc(C)ncc1C(=O)Nc1nnc(OCc2ccc([C@H](C)OC)cn2)s1 [Example 93, 4-(2-fluoro-6-methoxyphenyl)-N-(5-((5-((S)-1-methoxyethyl)pyridin-2-yl)methoxy)-1,3,4-thiadiazol-2-yl)-6-methylnicotinamide]	≤ 200 nM
COc1cccc(F)c1-c1cc(C)ncc1C(=O)Nc1nnc(OCc2ncc(C(C)(C)O)cc2F)s1 [Example 87, N-(5-((3-fluoro-5-(2-hydroxypropan-2-yl)pyridin-2-yl)methoxy)-1,3,4-thiadiazol-2-yl)-4-(2-fluoro-6-methoxyphenyl)-6-methylpyridine-3-carboxamide]	≤ 200 nM
COc1cnc(C)cc1-c1cc(C)ncc1C(=O)Nc1nnc(OC[C@H]2C[C@H](O)C2)s1 [Example 107, N-(5-(((1r,3r)-3-hydroxycyclobutyl)methoxy)-1,3,4-thiadiazol-2-yl)-5′-methoxy-2′,6-dimethyl-[4,4′-bipyridine]-3-carboxamide]	≤ 200 nM
Cc1cc(-c2cc(Cl)ncc2OC(F)F)c(C(=O)Nc2nnc(OCC3CCOC3)s2)cn1 (racemic) [Example 259, 2′-chloro-5′-(difluoromethoxy)-6-methyl-N-(5-((tetrahydrofuran-3-yl)methoxy)-1,3,4-thiadiazol-2-yl)-(4,4′-bipyridine)-3-carboxamide]	≤ 200 nM
COc1cnc(C)cc1-c1cc(C)ncc1C(=O)Nc1nnc(OC[C@H]2C[C@@H](O)C2)s1 [Example 118, N-(5-(((1s,3s)-3-hydroxycyclobutyl)methoxy)-1,3,4-thiadiazol-2-yl)-5′-methoxy-2′,6-dimethyl-[4,4′-bipyridine]-3-carboxamide]	≤ 200 nM
COc1ccc(COc2nnc(NC(=O)c3cnc(C)cc3-c3c(F)cccc3OC(F)F)s2)nc1 [Example 46, 4-(2-(difluoromethoxy)-6-fluorophenyl)-N-(5-((5-methoxypyridin-2-yl)methoxy)-1,3,4-thiadiazol-2-yl)-6-methylnicotinamide]	≤ 200 nM
COc1ccc(COc2nnc(NC(=O)c3cnc(C)cc3-c3ccccc3OC(F)F)s2)nc1 [Example 53, 4-(2-(difluoromethoxy)phenyl)-N-(5-((5-methoxypyridin-2-yl)methoxy)-1,3,4-thiadiazol-2-yl)-6-methylnicotinamide]	≤ 200 nM
CCc1cc(-c2cc(C)ncc2C(=O)Nc2nnc(OCc3ccc(C(C)(C)O)cn3)s2)c(OC)cn1 [Example 106, 2′-ethyl-N-(5-((5-(2-hydroxypropan-2-yl)pyridin-2-yl)methoxy)-1,3,4-thiadiazol-2-yl)-5′-methoxy-6-methyl-[4,4′-bipyridine]-3-carboxamide]	≤ 200 nM
COc1cnc(Cl)cc1-c1cc(C)ncc1C(=O)Nc1nnc(OCC2CCN(C)CC2)s1 [Example 178, 2′-chloro-5′-methoxy-6-methyl-N-(5-((1-methylpiperidin-4-yl)methoxy)-1,3,4-thiadiazol-2-yl)-(4,4′-bipyridine)-3-carboxamide]	200 to 500 nM
COc1cnc(Cl)cc1-c1cc(C)ncc1C(=O)Nc1nnc(OCC23CC(F)(C2)C3)s1 [Example 78, 2′-chloro-N-(5-((3-fluorobicyclo(1.1.1)pentan-1-yl)methoxy)-1,3,4-thiadiazol-2-yl)-5′-methoxy-6-methyl-(4,4′-bipyridine)-3-carboxamide]	≤ 200 nM

SMILES	IC50
COc1cnc(Cl)cc1-c1cc(C)ncc1C(=O)Nc1nnc(OC[C@H]2C[C@@H](O)C2)s1 [Example 193, 2′-chloro-N-(5-(((1s,3s)-3-hydroxycyclobutyl)methoxy)-1,3,4-thiadiazol-2-yl)-5′-methoxy-6-methyl-(4,4′-bipyridine)-3-carboxamide]	≤ 200 nM
COc1cnc(Cl)cc1-c1cc(C)ncc1C(=O)Nc1nnc(OCC2(C)CCOC2)s1 (stereo not shown) [Example 131, 2′-chloro-5′-methoxy-6-methyl-N-(5-((3-methyloxolan-3-yl)methoxy)-1,3,4-thiadiazol-2-yl)-(4,4′-bipyridine)-3-carboxamide]	≤ 200 nM
COc1cnc(Cl)cc1-c1cc(C)ncc1C(=O)Nc1nnc(OC[C@H]2CCO[C@H]2C)s1 (single isomer, unassigned) [Example 181]	≤ 200 nM
COc1ccccc1-c1cnccc1C(=O)Nc1nnc(OCC2CCOCC2)s1 [compound 1, 3-(2-methoxyphenyl)-N-(5-((tetrahydro-2H-pyran-4-yl)methoxy)-1,3,4-thiadiazol-2-yl)isonicotinamide]	200 to 500 nM
COc1cnc(Cl)cc1-c1cc(C)ncc1C(=O)Nc1nnc(OC[C@H]2CCO[C@@H]2C)s1 (single isomer, unassigned) [Example 182]	≤ 200 nM
COc1ccc(C#N)cc1-c1cc(C)ncc1C(=O)Nc1nnc(OCc2ccc(CO)cn2)s1 [Example 32, 4-(5-cyano-2-methoxyphenyl)-N-(5-((5-(hydroxymethyl)pyridin-2-yl)methoxy)-1,3,4-thiadiazol-2-yl)-6-methylpyridine-3-carboxamide]	≤ 200 nM
COc1cnc(C)cc1-c1cc(C)ncc1C(=O)Nc1nnc(OCC2CC3(CC(O)C3)C2)s1 (stereo not shown) [Example 139, N-(5-((6-hydroxyspiro[3.3]heptan-2-yl)methoxy)-1,3,4-thiadiazol-2-yl)-5′-methoxy-2′,6-dimethyl-[4,4′-bipyridine]-3-carboxamide]	≤ 200 nM
COc1cccc(F)c1-c1cc(C)ncc1C(=O)Nc1nnc(OCC23CC(O)(C2)C3)s1 [Example 61, 4-(2-fluoro-6-methoxyphenyl)-N-(5-((3-hydroxybicyclo(1.1.1)pentan-1-yl)methoxy)-1,3,4-thiadiazol-2-yl)-6-methylnicotinamide]	≤ 200 nM
COc1ccc(Cl)cc1-c1cc(C)ncc1C(=O)Nc1nnc(OCc2ccc([S@](C)(=N)=O)cc2)s1 [Example 122, (R)-4-(5-chloro-2-methoxyphenyl)-6-methyl-N-(5-((4-(S-methylsulfonimidoyl)benzyl)oxy)-1,3,4-thiadiazol-2-yl)nicotinamide]	≤ 200 nM
COc1cccc(F)c1-c1cc(C)ncc1C(=O)Nc1nnc(OCc2ccc(C3CCO3)cn2)s1 (stereo not shown) [Example 130, 4-(2-fluoro-6-methoxyphenyl)-6-methyl-N-(5-((5-(oxetan-2-yl)pyridin-2-yl)methoxy)-1,3,4-thiadiazol-2-yl)nicotinamide]	≤ 200 nM
COc1ccccc1-c1cc(C)ncc1C(=O)Nc1nnc(OCc2cc(CO)ccn2)s1 [Example 42, N-(5-((4-(hydroxymethyl)pyridin-2-yl)methoxy)-1,3,4-thiadiazol-2-yl)-4-(2-methoxyphenyl)-6-methylpyridine-3-carboxamide]	200 to 500 nM
COc1cnc(Cl)cc1-c1cc(C)ncc1C(=O)Nc1nnc(OCC2COC3(COC3)C2)s1 (stereo not shown) [Example 225, N-(5-((2,5-dioxaspiro(3.4)octan-7-yl)methoxy)-1,3,4-thiadiazol-2-yl)-2′-chloro-5′-methoxy-6-methyl-(4,4′-bipyridine)-3-carboxamide]	≤ 200 nM
COc1cnc(Cl)cc1-c1cc(C)ncc1C(=O)Nc1nnc(OCC2CCNCC2)s1 [Example 174, 2′-chloro-5′-methoxy-6-methyl-N-(5-(piperidin-4-ylmethoxy)-1,3,4-thiadiazol-2-yl)-(4,4′-bipyridine)-3-carboxamide]	≤ 200 nM
COc1ccc(C)cc1-c1cc(C)ncc1C(=O)Nc1nnc(OCc2cnc(CO)cn2)s1 [Example 134, N-(5-((5-(hydroxymethyl)pyrazin-2-yl)methoxy)-1,3,4-thiadiazol-2-yl)-4-(2-methoxy-5-methylphenyl)-6-methylpyridine-3-carboxamide]	≤ 200 nM
COc1cnc(C)c(F)c1-c1cc(C)ncc1C(=O)Nc1nnc(OC[C@H]2CC[C@H](O)CC2)s1 [Example 212, 3′-fluoro-N-(5-(((1r,4r)-4-hydroxycyclohexyl)methoxy)-1,3,4-thiadiazol-2-yl)-5′-methoxy-2′,6-dimethyl-(4,4′-bipyridine)-3-carboxamide]	≤ 200 nM
